# How the values were obtained:
# CHO-K1 cells = assay: Micronucleus assay (MNT) in vitro; assay type: cell-based; design: key: A: negative, putative negative (micronuclei detected beyond threshold of 60% cyctotoxicity); B: positive; conditions: 24 hrs treatment, 0.2 μM to 100 μM
# Method: The in vitro MNT assay is performed in CHO-K1 cells due to their stable and well-characterized karyotype, high sensitivity and suitability for a high content imaging approach. They have a basal spontaneous micronucleus frequency of 3-4%.
# 24 hrs after plating CHO-K1 cells are treated with test compounds for 24 hrs (in duplicates; fixed concentration ranges from 0.2 μM to 100 μM in 2-fold dilution steps). After a medium change cells are incubated for 24 hrs with Cytochalasin B to block cytokinesis and are then fixed and nuclei/micronuclei visualized with a DNA stain. Images are acquired with the Molecular Devices high content imagers IXU or IXM and are analyzed with the dedicated MetaXpress software micronucleus module. Criteria for scoring of micronuclei (MN) are the following: • diameter of the MN should be less than ⅓ of the main nucleus • MN should be separated from or marginally overlap with main nucleus (=no blebs) • MN should have similar staining as the main nucleus
# At least 1000 binucleated cells are evaluated per treatment replicate. Mitomycin C is used as reference stimulator of micronucleus formation. Cytotoxicity is evaluated in parallel and defined by comparing total nuclei count in compound-treated samples to neutral control samples treated with vehicle only (1% DMSO) (100% cytotoxicity means all cells are dead or lost).
# A test compound is regarded as POSITIVE if generation of micronuclei and exhibition of less than 60% cytotoxicity at the same concentration can be observed.
# Compounds are scored only in the soluble concentration range.
# Experimental data of the compounds shown in Table 1 in the MNT assay are shown in Table 2 below and classified in the following groups: […]
# ACSS2 = ACSS2 (Homo sapiens (Human), UniProt Q9NR19); assay: Cellular assay of 14C acetate incorporation into histones (IC50 ACSS2 cellular histone); assay type: cell-based; conditions: HCT-15 cells
# From the text: Cellular Assay of ^14C Acetate Incorporation into Histones (IC50 ACSS2 Cellular Histone)
# This protocol describes a cellular assay capable to quantify endogenous histone acetylation activity in the human HCT-15 cancer cell line following the incorporation of extracellularly administered radiolabeled ^14C acetate with a scintillation based read out on acid extracted histones.
# HCT-15 cells are trypsinized, washed and suspended in DMEM culture medium supplemented with penicillin/streptomycin (100 U/mL), sodium pyruvate (1 mM), and 10% FBS
# Compounds serial dilutions are prepared in 96-well V-bottom microplate from 10 mM stock solutions in DMSO. From these dilutions 0.5 μl are transferred to a fresh plate including pure DMSO as negative control. The dilutions are prepared such, that the final concentration in the assay is 1/400 of the concentration in the serial dilution. The final DMSO concentration in the assay is 0.25%.
# The cell suspension is seeded at densities of 2×10^5 cells per 170 μl into individual wells of a 96 well plate each containing 0.5 μl aliquots of compound serial dilutions and are kept for 1 h in a cell incubator. To each well 30 μL of a mixture containing 0.5 mCi/mL of ^14C-acetate with full medium are added. Then, the wells are incubated for 3 hrs in the cell incubator.
# Further steps of the procedure should be conducted on ice or instrumentations precooled to 4° C. Cells are sedimented in the 96-well V-bottom microplate by centrifugation (Eppendorf 5804 R) at 1200 rpm for 5 min. The supernatant is removed and the cells are washed twice with 200 μL of PBS-NaB (5 mM sodium butyrate) buffer by iterative resuspension and centrifugation. Finally, the cells are resuspended in 50 μL of TEB (PBS-NaB+0.5% Triton X-100) and left on ice for 10 minutes. After centrifugation at 2300 rpm for 10 minutes at 4° C. the supernatant is removed, the remaining pellet is suspended in 50 μL of 0.2M HCl and incubated over night at 4° C. After incubation the well plate is shaken for 2 minutes in a MTP plate shaker set to 1200 rpm and then centrifuged at 3700 rpm for 10 mins. The lysate is carefully aspirated (˜43 μL) and transferred into a white MTP plate (Greiner bio-one 65509). 90 μL of Ultima Gold XR scintillation cocktail are added and the plates are sealed with a transparent cover tape before mixing vigorously using plate shaker set to 1200 rpm. Radioactivity from ^14C incorporation in the wells is measured as CPM count in a MicroBeta Trilux luminescence counter.
# human rec ACSS2 = human rec ACSS2 (Homo sapiens (Human), UniProt Q9NR19); assay: Biochemical activity ACSS2 assay (AMP-Glo); conditions: human recombinant ACSS2, AMP-Glo, 180 min at 37° C.
# From the text: Biochemical Activity ACSS2 Assay (IC50 ACSS2 Biochemical)
# The biochemical activity assay for ACSS2 is based on the detection of released AMP by AMP-Glo™ Assay kit (Promega, Madison). The assay is run in three steps: the enzymatic reaction in which human rec ACSS2 activates acetate with ATP and Coenzyme A as cosubstrates to acetyl-CoA thereby releasing AMP and the detection reaction of AMP by AMP Glo assay in which after the destruction of the residual ATP with AMP Glo reagent 1 produced AMP is converted to ATP that is measured in a luciferase assay system (detection reagent). The ACSS2 activity correlates with the detected luminescence signal.
# The assay was performed in Perkin Elmer 384 well white Proxiplates in a total volume of 8 μl.
# 1 nM (fc)C-term myc tagged ACSS2 (human, recombinant, Origene, Rockville, US) and a mixture of 100 μM (fc) ATP, 100 μM (fc) Coenzyme A and 500 μM (fc) sodium acetate were incubated in a total volume of 5 μl (50 mM Hepes, 1 mM Mg-chloride, 150 mM NaCl, 1 mM DTT, 0.01% (w/v) BSA, 0.3% DMSO, pH 7.5) in the absence or presence of the test compound (10 dilution concentrations, start conc 30 μM) for 180 min at 37° C. The reaction was stopped and residual ATP destroyed by the addition of 1 μl AMP Glo reagent solution (Promega, Madison, US). After 1h incubation at room temperature 2 μl of AMP Glo detection reagent was added and the assay was incubated for 0.75 hr at room temperature. The luminescence signal was measured with an Envision multimode reader (Perkin Elmer LAS Germany GmbH) at 700 nm in luminescence mode. The full value used was the inhibitor-free reaction. The pharmacological zero value was generated by addition of ACSS2 inhibitor (Ac-CoA Synthase Inhibitor—CAS 508186-14-9-Calbiochem) in a final concentration of 5 μM. The inhibitory values (IC50) were determined using the program Assay Analyzer® from GeneData.
# Sequence of ACSS2 (Q9NR19 whole entry): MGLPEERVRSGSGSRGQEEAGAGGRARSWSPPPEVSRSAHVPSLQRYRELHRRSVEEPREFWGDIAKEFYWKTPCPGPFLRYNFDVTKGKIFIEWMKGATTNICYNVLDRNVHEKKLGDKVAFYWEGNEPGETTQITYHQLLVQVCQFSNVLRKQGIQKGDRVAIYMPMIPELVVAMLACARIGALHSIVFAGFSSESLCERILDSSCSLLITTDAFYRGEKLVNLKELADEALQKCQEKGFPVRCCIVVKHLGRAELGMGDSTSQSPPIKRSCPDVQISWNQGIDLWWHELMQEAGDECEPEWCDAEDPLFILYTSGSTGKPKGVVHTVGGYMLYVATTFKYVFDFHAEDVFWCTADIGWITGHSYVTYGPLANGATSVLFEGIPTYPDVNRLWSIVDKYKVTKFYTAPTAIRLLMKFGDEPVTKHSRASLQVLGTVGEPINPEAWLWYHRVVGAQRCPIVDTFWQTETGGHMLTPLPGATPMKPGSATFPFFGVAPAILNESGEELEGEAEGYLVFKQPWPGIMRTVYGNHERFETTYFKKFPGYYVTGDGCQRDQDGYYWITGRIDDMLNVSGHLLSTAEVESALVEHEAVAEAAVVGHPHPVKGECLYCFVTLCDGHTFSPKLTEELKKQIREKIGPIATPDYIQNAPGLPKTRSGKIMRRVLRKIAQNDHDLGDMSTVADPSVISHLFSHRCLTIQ
# Sequence of human rec ACSS2 (Q9NR19 whole entry): as above
SMILES,MNT (CHO-K1 cells),IC50 (ACSS2),IC50 (human rec ACSS2)
"CCn1c(C(O)(c2ccccn2)c2cccs2)nc2nc(OC)c(-c3nnn[nH]3)cc21 (racemic) [Compound 26, [1-ethyl-5-methoxy-6-(1H-1,2,3,4-tetrazol-5-yl)-1H-imidazo[4,5-b]pyridin-2-yl](pyridin-2-yl)(thiophen-2-yl)methanol]",A,1 to 10 nM,10 to 100 nM
"CCn1c(C(O)(c2ccccc2F)c2ccccc2F)nc2nc(F)c(-c3nnn[nH]3)cc21 [Compound 46, [1-ethyl-5-fluoro-6-(1H-1,2,3,4-tetrazol-5-yl)-1H-imidazo[4,5-b]pyridin-2-yl]bis(2-fluorophenyl)methanol]",A,10 to 100 nM,10 to 100 nM
"CCn1c(C(O)(c2ccccc2)c2nccs2)nc2nc(OC)c(-c3nnn[nH]3)cc21 (single isomer, unassigned) [Compound 33, [1-ethyl-5-methoxy-6-(1H-1,2,3,4-tetrazol-5-yl)-1H-imidazo[4,5-b]pyridin-2-yl](phenyl)(1,3-thiazol-2-yl)methanol]",A,10 to 100 nM,10 to 100 nM
"Cc1nc2nc(C(O)(c3ccccc3F)c3ccccc3F)n(C)c2cc1-c1nnn[nH]1 [Compound 55, [1,5-dimethy-6-(1H-1,2,3,4-tetrazol-5-yl)-1H-imidazo[4,5-b]pyridin-2-yl]bis(2-fluorophenyl)methanol]",A,10 to 100 nM,0.01 to 1 nM
"CCn1c(C(O)(c2ccccc2)c2ccc(OC(F)F)cc2F)nc2nc(OC)c(-c3nnn[nH]3)cc21 (racemic) [Compound 47, [4-(difluoromethoxy)-2-fluorophenyl][1-ethyl-5-methoxy-6-(1H-1,2,3,4-tetrazol-5-yl)-1H-imidazo[4,5-b]pyridin-2-yl]phenylmethanol]",A,1 to 10 nM,1 to 10 nM
"CCn1c(C(O)(c2ccccc2F)c2ccccc2F)nc2ncc(-c3nnn[nH]3)cc21 [Compound 61, [1-ethyl-6-(1H-1,2,3,4-tetrazol-5-yl)-1H-imidazo[4,5-b]pyridin-2-yl]bis(2-fluorophenyl)methanol]",A,100 to 10000 nM,10 to 100 nM
"CCn1c(C(O)(c2ccccc2)c2ccccc2C)nc2nc(OC)c(-c3nnn[nH]3)cc21 (racemic) [Compound 42, [1-ethyl-5-methoxy-6-(1H-1,2,3,4-tetrazol-5-yl)-1H-imidazo[4,5-b]pyridin-2-yl](2-methylphenyl)phenylmethanol]",A,1 to 10 nM,1 to 10 nM
"CCn1c(C(O)(c2ccccc2)c2cccnn2)nc2nc(OC)c(-c3nnn[nH]3)cc21 (stereo not drawn) [Compound 27, [1-ethyl-5-methoxy-6-(1H-1,2,3,4-tetrazol-5-yl)-1H-imidazo[4,5-b]pyridin-2-yl](phenyl)(pyridazin-3-yl)methanol]",A,1 to 10 nM,1 to 10 nM
"CCn1c(C(O)(c2ccccc2)c2ccsc2)nc2nc(OC)c(-c3nnn[nH]3)cc21 (racemic) [Compound 30, [1-ethyl-5-methoxy-6-(1H-1,2,3,4-tetrazol-5-yl)-1H-imidazo[4,5-b]pyridin-2-yl](phenyl)(thiophen-3-yl)methanol]",A,10 to 100 nM,1 to 10 nM
"CCc1c(C(O)(c2ccccc2)c2ccccn2)nc2cc(Cl)c(-c3nnn[nH]3)cn12 (single isomer, unassigned) [Compound 8, [7-chloro-3-ethyl-6-(1H-tetrazol-5-yl)imidazo[1,2-a]pyridin-2-yl]-phenyl-(2-pyridyl)methanol]",A,100 to 10000 nM,1 to 10 nM
"CCn1c(C(O)(c2ccsc2)c2ccsc2)nc2nc(OC)c(-c3nnn[nH]3)cc21 [Compound 29, [1-ethyl-5-methoxy-6-(1H-1,2,3,4-tetrazol-5-yl)-1H-imidazo[4,5-b]pyridin-2-yl]bis(thiophen-3-yl)methanol]",A,10 to 100 nM,1 to 10 nM
"CCc1c(C(O)(c2ccccc2F)c2ccccc2F)nn2cc(Cl)c(-c3nnn[nH]3)cc12 [Compound 20, [6-Chloro-3-ethyl-5-(1H-tetrazol-5-yl)-pyrazolo[1,5-a]pyridin-2-yl]-bis-(2-fluoro-phenyl)-methanol]",A,10 to 100 nM,1 to 10 nM
"CCc1c(C(O)(c2ccccc2)c2ccccc2)nn2cc(F)c(-c3nnn[nH]3)cc12 [Compound 23, [3-Ethyl-6-fluoro-5-(1H-tetrazol-5-yl)-pyrazolo[1,5-a]pyridin-2-yl]-diphenyl-methanol]",A,10 to 100 nM,10 to 100 nM
"CCn1c(C(O)(c2ccc(OC(F)F)cc2)c2ccccc2F)nc2nc(OC)c(-c3nnn[nH]3)cc21 (racemic) [Compound 52, [4-(difluoromethoxy)phenyl][1-ethyl-5-methoxy-6-(1H-1,2,3,4-tetrazol-5-yl)-1H-imidazo[4,5-b]pyridin-2-yl](2-fluorophenyl)methanol]",A,1 to 10 nM,1 to 10 nM
"CCn1c(C(O)(c2ccccc2)c2cnn(C)c2)nc2nc(OC)c(-c3nnn[nH]3)cc21 (racemic) [Compound 36, [1-ethyl-5-methoxy-6-(1H-1,2,3,4-tetrazol-5-yl)-1H-imidazo[4,5-b]pyridin-2-yl](1-methyl-1H-pyrazol-4-yl)phenylmethanol]",A,100 to 10000 nM,10 to 100 nM
